Laboratory results from US8530680B2, “System and method for controlling growth of microorganisms with brominated furanones” (Syracuse University, priority 2008, dated 2013).

Columns and labels:
[1] = tested on: Gloeophyllum trabeum strain GT598; assay: Fungal growth on MEA plates with furanone; type: cell-based; set-up: key to growth on plate, GT598: −: No growth was observed; +: normal growth was seen; settings: for growth on plate, GT598: 60 μg/mL, 7 days at 30° C.; for growth inhibition test, inhibitory concentration, GT598: tested at 1, 5, 30, 60 μg/mL, 7 days
Procedure: (§1) This Example examines the effect of brominated furanones on the growth of fungi associated with damage to building material. Six fungal strains were the subject of these experiments; Gloeophyllum trabeum (strains GT598 and GT599), Chaetomium globosum (wildtype strain and CG572), and Trametes versicolor (strains TV7B2-59 and TV57MAD277). The species were developed on 2% Malt-Extract Agar (MEA) plates and stored inverted at 4° C. The stocks were refreshed by streaking new plates every two months.
(§2) The brominated and non-brominated furanones were added to MAE agar plates at different concentrations. The brominated furanones were dissolved in either ethanol (“EtOH”) or methanol (“MeOH”) as stock solutions, as shown in Table 5. The non-brominated furanones were purchased from Sigma (St. Louis, Mo.). The furanone stocks were stored at 4° C.
(§3) MAE agar plates containing the same amounts of ethanol/methanol were also prepared as negative controls to eliminate any solvent effects. The plates were prepared using either 90 mm or 60 mm petri dishes and were stored inverted at 4° C. until use.
(§4) Different concentrations of furanones were studied to compare their antifungal activities. The plates were inoculated with the six fungal strains using a platinum loop and were incubated upside down at 30° C. for 7 days to monitor the growth. The initial screening was performed using a single 60 μg/mL furanone concentration.

[2] = tested on: Gloeophyllum trabeum strain GT599; assay: Fungal growth on MEA plates with furanone; type: cell-based; set-up: key to growth on plate, GT599: −: No growth was observed; +: normal growth was seen; settings: for growth on plate, GT599: 60 μg/mL, 7 days at 30° C.; for growth inhibition test, inhibitory concentration, GT599: tested at 1, 5, 30, 60 μg/mL, 7 days
Procedure: as §1, §2, §3, §4

[3] = tested on: Chaetomium globosum wildtype strain (CG); assay: Fungal growth on MEA plates with furanone; type: cell-based; set-up: key to growth on plate, CG: −: No growth was observed; +: normal growth was seen; settings: for growth on plate, CG: 60 μg/mL, 7 days at 30° C.; for growth inhibition test, inhibitory concentration, CG: tested at 1, 5, 30, 60 μg/mL, 7 days
Procedure: as §1, §2, §3, §4

[4] = tested on: Chaetomium globosum CG572; assay: Fungal growth on MEA plates with furanone; type: cell-based; set-up: key to growth on plate, CG572: −: No growth was observed; +: normal growth was seen; settings: for growth on plate, CG572: 60 μg/mL, 7 days at 30° C.; for growth inhibition test, inhibitory concentration, CG572: tested at 1, 5, 30, 60 μg/mL, 7 days
Procedure: as §1, §2, §3, §4

[5] = tested on: Trametes versicolor strain TV7B2-59; assay: Fungal growth on MEA plates with furanone; type: cell-based; set-up: key to growth on plate, TV7B2-59: −: No growth was observed; +: normal growth was seen; settings: for growth on plate, TV7B2-59: 60 μg/mL, 7 days at 30° C.; for growth inhibition test, inhibitory concentration, TV7B2-59: tested at 1, 5, 30, 60 μg/mL, 7 days
Procedure: as §1, §2, §3, §4

[6] = tested on: Trametes versicolor strain TV57MAD277; assay: Fungal growth on MEA plates with furanone; type: cell-based; set-up: key to growth on plate, TV57MAD277: −: No growth was observed; +: normal growth was seen; settings: for growth on plate, TV57MAD277: 60 μg/mL, 7 days at 30° C.; for growth inhibition test, inhibitory concentration, TV57MAD277: tested at 1, 5, 30, 60 μg/mL, 7 days
Procedure: as §1, §2, §3, §4

[7] = tested on: P. aeruginosa strain PAO1; assay: Microplate based planktonic growth assay of P. aeruginosa; type: cell-based, Pseudomonas aeruginosa; settings: for reduction of specific growth rate compared to furanone-free control: planktonic growth
Procedure: The antimicrobial activities of furanones on the planktonic growth of P. aeruginosa strain PAO1 was examined using a microplate based growth assay. An overnight culture of the strain grown in LB medium at 30° C. was used to inoculate M63 minimal medium supplemented with furanones at 0, 30 or 60 μg/mL to an optical density at 600 nm (OD600) of 0.05 in 96-well plates. The plates were then incubated at 30° C. with shaking at 200 rpm. The reading of OD600 was measured every 60 minutes for six hours using a microplate reader (ELx808, BioTek Instruments). Six replicates were tested for every sample. The synthesis of the brominated furanones, the structures of which are shown in FIGS. 1A and 1B, was according to Example 1.

[8] = tested on: six fungal strains (Gloeophyllum trabeum, Chaetomium globosum, Trametes versicolor); assay: Fungal growth on MEA plates with furanone, statements for all six strains; type: cell-based; settings: for growth inhibition of the six fungal strains, comparison: 1 to 60 μg/mL
Procedure: as §1, §2, §3, §4

[9] = tested on: Candida albicans strain SC5341; assay: C. albicans growth curves in SD medium with furanones (96-well plates, OD600); type: cell-based; settings: tested 2.5, 5, 10, 20 μg/mL
Procedure: To evaluate the effects of furanones on fungal growth, C. albicans was grown in a synthetic dextrose (“SD”) medium supplemented with 0, 2.5, 5, 10, or 20 μg/mL of one of eight different brominated furanones and […] furanones (BF1, BF8, BF9, BF11, BF12, BF14, NF1, NF2, or NF3).
The Candida albicans strain SC5341 used in this study was provided by Dr. Sean Palecek from the University of Wisconsin-Madison. C. albicans was routinely grown overnight at 30° C. and shaken at 200 rpm in a SD medium containing 0.67% (wt/vol) yeast nitrogen base without amino acids and 2% (wt/vol) dextrose, which was buffered with 0.165 M morpholinepropanesulfonic acid (MOPS, Sigma), and pH-adjusted to 7.0 with solid NaOH. The overnight culture was then sub-cultured in 25 mL of fresh SD medium to an initial optical density at 600 nm (OD600) of 0.005 and grown till the OD600 reached 1.0. The OD600 values were measured using a Spectronic GENESYS 5 UV-Vis spectrophotometer (Thermo Fisher Scientific®, Waltham, Mass.). This culture was used to inoculate sterile 96-well plates (Costar® No. 9017, Corning®, Corning, N.Y.) containing SD medium supplemented with furanones at different concentrations (0, 2.5, 5, 10, 20 μg/mL) to an OD600 of 0.06 in at least duplicates. The BF1, 8, 9, 11, 12, 14 and NF1-3 compounds were dissolved in ethanol at a concentration of 20 mg/mL. The BF10 compound was dissolved in methanol at a concentration of 20 mg/mL. The amounts of methanol and ethanol were adjusted to be the same for each sample to eliminate the effects of solvents. The samples were then incubated at 30° C. with shaking at 200 rpm, and the OD600 in each well was measured at 0, 4, 7, 17, and 42 hours after inoculation, using an ELx808™ Absorbance Microplate Reader (BioTek Instruments® Inc., Winooski, Vt.).

[10] = tested on: P. aeruginosa strain PAO1 biofilm formation; assay: Microplate-based biofilm assay (crystal violet, OD540) of P. aeruginosa; type: cell-based, Pseudomonas aeruginosa; settings: 24 hours
Procedure: A microplate-based biofilm assay was used to further investigate whether furanones inhibit biofilm formation of P. aeruginosa strain PAO1. For this biofilm assay the strain was grown at 30° C. without shaking in M63 minimal medium containing 13.6 g/L KH2PO4, 2 g/L (NH4)2SO4, 0.5 mg/L FeSO4, 0.12 g/L MgSO4, 5 g/L vitamin free casamino acids and 5 g/L glucose (pH 7.0). The synthesis of the brominated furanones, the structures of which are shown in FIGS. 1A and 1B, was according to Example 1.
The overnight culture of P. aeruginosa was used to inoculate fresh M63 medium supplemented with furanones (0, 30 or 60 μg/mL) to an OD600 of 0.05 in 96-well plates. Four replicates were tested for each condition. The plates were incubated at 30° C. without shaking for 24 hours. The biofilm mass was quantified by following the protocol described previously. Briefly, the planktonic cells were carefully removed by pipetting and the plates with biofilms were washed three times with deionized H2O and dried by gently patting on a piece of paper towel. To quantify biofilms, the plates were stained with 0.1% crystal violet and incubated for 20 minutes at room temperature. The plates were then washed three times with deionized H2O to remove extra dyes. An OD540 was measured to quantify the biofilm on the bottom of each well.

E. coli = E. coli growth inhibition (results not shown); type: cell-based

## O=C1C=C(CBr)C(=O)O1 [BF15, 3-(bromomethyl)-2,5-furandione]
[1]
  growth on plate, GT598: −
[2]
  growth on plate, GT599: −
[3]
  growth on plate, CG: −
[4]
  growth on plate, CG572: −
[5]
  growth on plate, TV7B2-59: −
[6]
  growth on plate, TV57MAD277: −

## CC1=CC(C)OC1=O (stereo not drawn) [NF3, 3,5-Dimethylfuran-2(5H)-one, reference compound]
[7]; 30 μg/mL
  inhibitory effect on planktonic growth: did not exhibit significant inhibitory effects

## COC1=CC(=O)OC1 [NF2, 4-Methoxy-2(5H)-furanone; IUPAC: 4-methoxy-2(5H)-furanone, reference compound]
[8]; 60 μg/mL, 7 days
  growth inhibition of the six fungal strains: did not show any apparent inhibition

## CC1=C(Br)C(C(Br)Br)OC1=O (stereo not drawn) [BF14, 4-bromo-5-(dibromomethyl)-3-methylfuran-2(5H)-one]
[9]
  lowest concentration showing growth inhibition: 20 µg/mL
[7]; 30 μg/mL
  inhibitory effect on planktonic growth: did not exhibit significant inhibitory effects
[10]; 30 and 60 μg/mL
  inhibition of biofilm formation: non-inhibitory

## O=C1O/C(=C\Br)C(Br)=C1CBr [BF12, 4-bromo-3-(bromomethyl)-5Z-(bromomethylene)furan-2-one]
E. coli
  growth inhibition of E. coli: significantly inhibit
[7]; 30 μg/mL
  reduction of specific growth rate compared to furanone-free control: 91.2%
[7]; 60 μg/mL
  reduction of specific growth rate compared to furanone-free control: 100%
[10]; 30 μg/mL
  inhibition of biofilm formation: significantly inhibited
[10]; 60 μg/mL
  inhibition of biofilm formation: significantly inhibited
[1]
  growth inhibition test, inhibitory concentration, GT598: 1 µg/mL
[2]
  growth inhibition test, inhibitory concentration, GT599: 5 µg/mL
[3]
  growth inhibition test, inhibitory concentration, CG: 1 µg/mL
[4]
  growth inhibition test, inhibitory concentration, CG572: 5 µg/mL
[5]
  growth inhibition test, inhibitory concentration, TV7B2-59: 5 µg/mL
[6]
  growth inhibition test, inhibitory concentration, TV57MAD277: 5 µg/mL
[8]
  growth inhibition of the six fungal strains, comparison: most significant inhibition

## CC1=C(Br)C(C(Br)Br)OC1=O (stereo not drawn) [BF13, 4-bromo-5-(dibromomethyl)-3-methylfuran-2(5Br)-one]
[7]; 30 μg/mL
  inhibitory effect on planktonic growth: did not exhibit significant inhibitory effects
[10]; 30 μg/mL
  inhibition of biofilm formation: significantly inhibited
[10]; 60 μg/mL
  inhibition of biofilm formation: significantly inhibited
[1]
  growth inhibition test, inhibitory concentration, GT598: 60 µg/mL
[2]
  growth inhibition test, inhibitory concentration, GT599: 60 µg/mL
[3]
  growth inhibition test, inhibitory concentration, CG: 60 µg/mL
[4]
  growth inhibition test, inhibitory concentration, CG572: 60 µg/mL
[5]
  growth inhibition test, inhibitory concentration, TV7B2-59: 60 µg/mL
[6]
  growth inhibition test, inhibitory concentration, TV57MAD277: 5 µg/mL

## CC1=CC(=O)OC1=O [NF1, Citraconic anhydride; IUPAC: 3-methyl-2,5-furandione, reference compound]
[7]; 30 μg/mL
  inhibitory effect on planktonic growth: did not exhibit significant inhibitory effects
[1]
  growth inhibition test, inhibitory concentration, GT598: 60 µg/mL
[2]
  growth inhibition test, inhibitory concentration, GT599: 60 µg/mL
[3]
  growth inhibition test, inhibitory concentration, CG: 60 µg/mL
[4]
  growth inhibition test, inhibitory concentration, CG572: 60 µg/mL
[5]
  growth inhibition test, inhibitory concentration, TV7B2-59: 60 µg/mL
[6]
  growth inhibition test, inhibitory concentration, TV57MAD277: 60 µg/mL

## O=C1OC(=C(Br)Br)C=C1CBr [BF11, 3-(bromomethyl)-5-(dibromomethylene)furan-2-one]
E. coli
  growth inhibition of E. coli: significantly inhibit
[7]; 30 μg/mL
  reduction of specific growth rate compared to furanone-free control: 27.3%
[7]; 60 μg/mL
  reduction of specific growth rate compared to furanone-free control: 65.0%
[10]; 30 μg/mL
  inhibition of biofilm formation: significantly inhibited
[10]; 60 μg/mL
  inhibition of biofilm formation: significantly inhibited
[1]
  growth on plate, GT598: −
  growth inhibition test, inhibitory concentration, GT598: 1 µg/mL
[2]
  growth on plate, GT599: −
  growth inhibition test, inhibitory concentration, GT599: 5 µg/mL
[3]
  growth on plate, CG: −
  growth inhibition test, inhibitory concentration, CG: 5 µg/mL
[4]
  growth on plate, CG572: −
  growth inhibition test, inhibitory concentration, CG572: 5 µg/mL
[5]
  growth on plate, TV7B2-59: −
  growth inhibition test, inhibitory concentration, TV7B2-59: 5 µg/mL
[6]
  growth on plate, TV57MAD277: −
  growth inhibition test, inhibitory concentration, TV57MAD277: 5 µg/mL
[8]
  growth inhibition of the six fungal strains, comparison: most significant inhibition
